Data as given in patent publication US10485815B2, “Substituted nucleosides, nucleotides and analogs thereof” (Alios BioPharma, Inc., priority 2012, dated 2019).
Like-named read-outs stand apart in the source and are kept apart here.

Assays:
[1] = system: RSV A2 (ATCC: VR-1540); assay: RSV RT-PCR based assay in HEp-2 cells; type: cell-based; conditions: human respiratory syncytial virus
[2] = system: Influenza strain A/WSN/33 (H1N1); assay: microbe, parasite or virus in culture; type: cell-based; conditions: A549, 20 h, read-out: % Inhibition
[3] = system: hPIV3-eGFP; assay: microbe, parasite or virus in culture; type: cell-based, human parainfluenza virus 3; conditions: Human respirovirus 3, A549, 72 h
[4] = system: human parainfluenza virus 3 (hPIV3, ATCC: VR-93); assay: Parainfluenza virus-3 (PIV-3) RT-PCR assay in A549 cells; type: cell-based; conditions: Human respirovirus 3, 168 h, hPIV3 MOI 0.1, 7 days after infection
[5] = target: RSV polymerase (Human respiratory syncytial virus A, UniProt P28887); assay: biochemical
[6] = 96 h, RT-PCR assay, HEp-2 cells, RSV A2 MOI 0.1, 4 days after infection, read-out: EC50

RSV polymerase, sequence (P28887 whole entry, looked up): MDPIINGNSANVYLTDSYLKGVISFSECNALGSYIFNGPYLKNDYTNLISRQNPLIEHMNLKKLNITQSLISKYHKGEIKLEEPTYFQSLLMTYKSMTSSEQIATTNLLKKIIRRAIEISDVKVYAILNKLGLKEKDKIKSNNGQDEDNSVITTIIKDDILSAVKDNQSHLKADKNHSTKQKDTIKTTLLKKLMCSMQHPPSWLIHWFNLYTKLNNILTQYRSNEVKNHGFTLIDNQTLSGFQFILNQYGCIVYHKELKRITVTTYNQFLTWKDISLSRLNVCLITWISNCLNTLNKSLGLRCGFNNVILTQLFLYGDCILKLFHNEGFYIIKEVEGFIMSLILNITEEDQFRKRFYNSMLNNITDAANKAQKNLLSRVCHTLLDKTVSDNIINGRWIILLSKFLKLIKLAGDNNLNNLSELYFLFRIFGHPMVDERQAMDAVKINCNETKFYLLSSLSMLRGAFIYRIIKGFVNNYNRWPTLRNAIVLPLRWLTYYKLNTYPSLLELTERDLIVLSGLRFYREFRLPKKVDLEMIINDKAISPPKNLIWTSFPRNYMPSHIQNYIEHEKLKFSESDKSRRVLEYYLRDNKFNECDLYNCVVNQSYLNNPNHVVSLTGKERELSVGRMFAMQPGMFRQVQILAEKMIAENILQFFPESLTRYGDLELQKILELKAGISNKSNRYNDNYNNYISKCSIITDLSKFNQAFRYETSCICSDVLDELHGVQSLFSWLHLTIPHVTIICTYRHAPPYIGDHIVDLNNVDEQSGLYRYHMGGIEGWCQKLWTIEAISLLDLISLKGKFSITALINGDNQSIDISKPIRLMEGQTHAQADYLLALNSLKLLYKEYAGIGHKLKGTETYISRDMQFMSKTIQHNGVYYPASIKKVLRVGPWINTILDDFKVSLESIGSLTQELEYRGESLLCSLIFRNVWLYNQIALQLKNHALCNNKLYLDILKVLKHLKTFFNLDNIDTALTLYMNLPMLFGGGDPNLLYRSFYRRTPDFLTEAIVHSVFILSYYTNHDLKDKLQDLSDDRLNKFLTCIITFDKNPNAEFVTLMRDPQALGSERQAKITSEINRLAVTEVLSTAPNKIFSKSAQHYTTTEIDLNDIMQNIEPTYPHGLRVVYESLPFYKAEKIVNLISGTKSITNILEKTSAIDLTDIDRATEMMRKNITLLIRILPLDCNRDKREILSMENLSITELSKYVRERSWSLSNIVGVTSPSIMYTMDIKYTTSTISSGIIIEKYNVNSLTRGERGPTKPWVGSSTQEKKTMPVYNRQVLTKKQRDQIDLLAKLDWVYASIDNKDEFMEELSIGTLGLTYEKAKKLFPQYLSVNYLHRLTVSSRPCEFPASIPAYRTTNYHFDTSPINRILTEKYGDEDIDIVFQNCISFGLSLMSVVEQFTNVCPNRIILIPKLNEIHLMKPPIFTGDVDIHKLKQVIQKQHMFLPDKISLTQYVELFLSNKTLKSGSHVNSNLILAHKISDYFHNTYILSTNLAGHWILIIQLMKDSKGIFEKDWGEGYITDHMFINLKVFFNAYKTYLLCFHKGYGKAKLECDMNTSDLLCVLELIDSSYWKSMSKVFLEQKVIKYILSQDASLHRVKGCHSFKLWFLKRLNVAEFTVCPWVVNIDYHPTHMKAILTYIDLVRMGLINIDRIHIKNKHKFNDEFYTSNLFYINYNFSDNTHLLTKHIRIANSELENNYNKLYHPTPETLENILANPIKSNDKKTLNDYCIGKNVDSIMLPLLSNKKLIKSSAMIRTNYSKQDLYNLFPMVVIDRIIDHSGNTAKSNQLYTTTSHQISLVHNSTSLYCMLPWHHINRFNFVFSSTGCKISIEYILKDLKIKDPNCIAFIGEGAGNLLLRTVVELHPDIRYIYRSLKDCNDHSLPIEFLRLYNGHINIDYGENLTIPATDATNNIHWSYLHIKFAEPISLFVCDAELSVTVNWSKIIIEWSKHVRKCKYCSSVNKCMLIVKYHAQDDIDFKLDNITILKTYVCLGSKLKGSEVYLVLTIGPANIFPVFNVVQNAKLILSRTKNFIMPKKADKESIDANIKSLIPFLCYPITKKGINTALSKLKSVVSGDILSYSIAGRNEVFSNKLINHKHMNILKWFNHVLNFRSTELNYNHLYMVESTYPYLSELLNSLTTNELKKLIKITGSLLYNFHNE

SMILES	EC50 [2] [µM]	EC50 [1, 6] [µM]	further results
C#C[C@]1(CO)O[C@@H](n2ccc(N)nc2=O)[C@H](F)[C@@H]1O [Compound 1a]	100 to 250	–	EC50 ([1]; HEp-2, 96 h): 10 to 100 µM
C=C[C@]1(CO)O[C@@H](n2ccc(N)nc2=O)[C@H](F)[C@@H]1O [Compound 4a]	100 to 250	10 to 100	EC50 [3]: > 100 µM
Nc1ccn([C@@H]2OC(CO)(CO)[C@@H](O)[C@H]2F)c(=O)n1 [Compound 6a]	100 to 250	–	EC50 [4]: > 100 µM; EC50 [3]: > 100 µM
C[C@]1(CO)O[C@@H](n2ccc(N)nc2=O)[C@H](F)[C@@H]1O [Compound 9a]	100 to 250	10 to 100	EC50 [4]: > 100 µM; EC50 [3]: > 100 µM
C=C=C[C@]1(CO)O[C@@H](n2ccc(N)nc2=O)[C@H](F)[C@@H]1O [Compound 11a]	–	1 to 10	–
Nc1ccn([C@@H]2O[C@@]3(CO)CO[C@H]3[C@H]2F)c(=O)n1 [Compound 12a]	100 to 250	–	–
CC[C@]1(COP2(=O)OCc3cccc(C)c3O2)O[C@@H](n2ccc(N)nc2=O)[C@H](F)[C@@H]1O (stereo partly drawn) [Compound 14a]	–	–	EC50 ([1]; HEp-2, 96 h): < 1 µM
C=C[C@]1(COP(=O)(N[C@@H](C)C(=O)OC(C)C)Oc2ccccc2)O[C@@H](n2ccc(N)nc2=O)[C@H](F)[C@@H]1O (stereo partly drawn) [Compound 16a]	100 to 250	–	–
C=C[C@]1(COP(=O)(N[C@@H](C)C(=O)OC(C)C)Oc2ccccc2)O[C@@H](n2ccc(=O)[nH]c2=O)[C@H](F)[C@@H]1O (stereo partly drawn) [Compound 17a]	100 to 250	–	–
C#C[C@]1(COP(=O)(N[C@@H](C)C(=O)OC(C)C)Oc2ccccc2)O[C@@H](n2ccc(=O)[nH]c2=O)[C@H](F)[C@@H]1O (stereo partly drawn) [Compound 18a]	100 to 250	–	–
CCC[C@]1(CO)O[C@@H](n2ccc(N)nc2=O)[C@H](F)[C@@H]1O [Compound 21a]	100 to 250	< 1	–
CO[C@]1(CO)O[C@@H](n2ccc(N)nc2=O)[C@H](F)[C@@H]1O [Compound 22a]	100 to 250	10 to 100	EC50 [4]: > 100 µM; EC50 [3]: > 100 µM
Nc1ccn([C@@H]2O[C@@](CO)(CF)[C@@H](O)[C@H]2F)c(=O)n1 [Compound 23a]	100 to 250	< 1	EC50 [4]: > 100 µM; EC50 [3]: > 100 µM
C=C[C@]1(CO)O[C@@H](n2cnc3c(=O)[nH]c(N)nc32)[C@H](F)[C@@H]1O [Compound 25a, 2′-Deoxy-2′-fluoro-4′-C-(ethenyl)guanosine]	< 20	10 to 100	–
N#C[C@]1(CO)O[C@@H](n2cnc3c(=O)[nH]c(N)nc32)[C@H](F)[C@@H]1O [Compound 26a]	100 to 250	1 to 10	–
C#C[C@]1(CO)O[C@@H](n2cnc3c(=O)[nH]c(N)nc32)[C@H](F)[C@@H]1O [Compound 27a]	20 to 100	1 to 10	–
CO[C@]1(CO)O[C@@H](n2cnc3c(=O)[nH]c(N)nc32)[C@H](F)[C@@H]1O [Compound 28a]	100 to 250	1 to 10	–
CC(C)(C)C(=O)OCOP(=O)(OCOC(=O)C(C)(C)C)OC[C@@]1(CCl)O[C@@H](n2ccc(N)nc2=O)[C@H](F)[C@@H]1O [Compound 30a]	100 to 250	< 1	–
CC[C@]1(COP(=O)(OCOC(=O)C(C)(C)C)OCOC(=O)C(C)(C)C)O[C@@H](n2ccc(N)nc2=O)[C@H](F)[C@@H]1O [Compound 31a]	100 to 250	1 to 10	–
CC[C@]1(COP(=O)(OCCSC(=O)C(C)(C)C)OCCSC(=O)C(C)(C)C)O[C@@H](n2ccc(N)nc2=O)[C@H](F)[C@@H]1O [Compound 33a]	–	< 1	–
CC[C@]1(COP(=O)(O)OP(=O)(O)OP(=O)(O)O)O[C@@H](n2ccc(N)nc2=O)[C@H](F)[C@@H]1O [Compound 36a]	–	–	EC50 [5]: < 2000 nM
C#C[C@]1(COP(=O)(O)OP(=O)(O)OP(=O)(O)O)O[C@@H](n2ccc(N)nc2=O)[C@H](F)[C@@H]1O [Compound 36c]	–	–	EC50 [5]: < 2000 nM
CC(F)[C@]1(COP(=O)(O)OP(=O)(O)OP(=O)(O)O)O[C@@H](n2ccc(N)nc2=O)[C@@H](F)[C@H]1O (stereo partly drawn) [Compound 36e]	–	–	EC50 [5]: < 2000 nM
CC(C)CC[C@]1(COP(=O)(O)OP(=O)(O)OP(=O)(O)O)O[C@@H](n2ccc(N)nc2=O)[C@H](F)[C@@H]1O [Compound 36i]	–	–	EC50 [5]: 2000 to 10000 nM
C=C(C)[C@]1(COP(=O)(O)OP(=O)(O)OP(=O)(O)O)O[C@@H](n2ccc(N)nc2=O)[C@H](F)[C@@H]1O [Compound 36j]	–	–	EC50 [5]: 2000 to 10000 nM
CC[C@]1(CO)O[C@@H](n2cnc3c(=O)[nH]c(N)nc32)[C@H](F)[C@@H]1O [Compound 39a]	20 to 100	1 to 10	–

SMILES	EC50 [2] [µM]	EC50 [1, 6] [µM]	further results
CC(F)[C@]1(CO)O[C@@H](n2ccc(N)nc2=O)[C@H](F)[C@@H]1O (stereo partly drawn) [Compound 40a]	–	–	EC50 [4]: > 100 µM; EC50 [3]: > 100 µM
Nc1ccn([C@@H]2O[C@@](CO)(C3CC3)[C@@H](O)[C@H]2F)c(=O)n1 [Compound 41a]	–	1 to 10	–
COC[C@]1(CO)O[C@@H](n2ccc(N)nc2=O)[C@H](F)[C@@H]1O [Compound 43a]	–	–	EC50 [4]: > 100 µM; EC50 [3]: > 100 µM
CC(C)(C)C(=O)OCOP(=O)(OCOC(=O)C(C)(C)C)OC[C@@]1(CCl)O[C@@H](n2ccc(=O)[nH]c2=O)[C@H](F)[C@@H]1O [Compound 45a]	–	10 to 100	–
CC(C)C(=O)OC[C@@]1(CCl)O[C@@H](n2ccc(N)nc2=O)[C@H](F)[C@@H]1OC(=O)C(C)C [Compound 46a]	–	1 to 10	–
CCCCC(=O)OC[C@@]1(CCl)O[C@@H](n2ccc(N)nc2=O)[C@H](F)[C@@H]1OC(=O)CCCC [Compound 48a]	–	1 to 10	–
O=c1ccn([C@@H]2O[C@](CCl)(COP(=O)(O)OP(=O)(O)OP(=O)(O)O)[C@@H](O)[C@H]2F)c(=O)[nH]1 [Compound 56a]	–	–	EC50 [5]: 2000 to 10000 nM
Nc1ccn([C@@H]2O[C@](CF)(COP(=O)(O)OP(=O)(O)OP(=O)(O)O)[C@@H](O)[C@H]2F)c(=O)n1 [Compound 56c]	–	–	EC50 [5]: < 2000 nM
Nc1ccn([C@@H]2O[C@@](COP(=O)(O)OP(=O)(O)OP(=O)(O)O)(C3CC3)[C@@H](O)[C@H]2F)c(=O)n1 [Compound 56d]	–	–	EC50 [5]: < 2000 nM
CC(F)[C@]1(COP(=O)(O)OP(=O)(O)OP(=O)(O)O)O[C@@H](n2ccc(N)nc2=O)[C@H](F)[C@@H]1O (stereo partly drawn) [Compound 56e]	–	–	EC50 [5]: < 2000 nM
CSC[C@]1(CO)O[C@@H](n2ccc(N)nc2=O)[C@H](F)[C@@H]1O [Compound 69a]	–	< 1	EC50 [4]: < 20 µM; EC50 [3]: 20 to 100 µM
Nc1ccn([C@@H]2O[C@@](CO)(CBr)[C@@H](O)[C@H]2F)c(=O)n1 [Compound 71a]	–	< 1	EC50 [4]: > 100 µM; EC50 [3]: > 100 µM
O=c1nc(NO)ccn1[C@@H]1O[C@@](CO)(CCl)[C@@H](O)[C@H]1F [Compound 73a]	–	10 to 100	–
Nc1nc(=O)n([C@@H]2O[C@@](CO)(CCl)[C@@H](O)[C@H]2F)cc1F [Compound 76a]	–	< 1	–
Nc1nc2c(ncn2[C@@H]2O[C@@](CO)(CCl)[C@@H](O)[C@H]2F)c(=O)[nH]1 [Compound 81a]	–	1 to 10	–
C[C@]1(CO)O[C@@H](n2cnc3c(=O)[nH]c(N)nc32)[C@H](F)[C@@H]1O [Compound 82a]	–	< 1	–
COC[C@]1(COP(=O)(O)OP(=O)(O)OP(=O)(O)O)O[C@@H](n2ccc(N)nc2=O)[C@@H](F)[C@H]1O [Compound 97a]	–	–	EC50 [5]: < 2000 nM
CSC[C@]1(COP(=O)(O)OP(=O)(O)OP(=O)(O)O)O[C@@H](n2ccc(N)nc2=O)[C@@H](F)[C@H]1O [Compound 97b]	–	–	EC50 [5]: < 2000 nM
Nc1ccn([C@@H]2O[C@](CBr)(COP(=O)(O)OP(=O)(O)OP(=O)(O)O)[C@H](O)[C@@H]2F)c(=O)n1 [Compound 97c]	–	–	EC50 [5]: < 2000 nM
Nc1nc(=O)n([C@@H]2O[C@](CCl)(COP(=O)(O)OP(=O)(O)OP(=O)(O)O)[C@H](O)[C@@H]2F)cc1F [Compound 97g]	–	–	EC50 [5]: < 2000 nM
Nc1ncnc2c1ncn2[C@@H]1O[C@](CCl)(COP(=O)(O)OP(=O)(O)OP(=O)(O)O)[C@@H](O)[C@H]1F [Compound 98b]	–	–	EC50 [5]: < 2000 nM
Nc1ncnc2c1ncn2[C@@H]1O[C@](CF)(COP(=O)(O)OP(=O)(O)OP(=O)(O)O)[C@@H](O)[C@H]1F [Compound 98c]	–	–	EC50 [5]: < 2000 nM
CC(C)OC(=O)OCOP(=O)(OCOC(=O)OC(C)C)OC[C@@]1(C2CC2)O[C@@H](n2ccc(N)nc2=O)[C@H](F)[C@@H]1O [Compound 105a]	–	10 to 100	–
COC[C@]1(COP(=O)(OCOC(=O)OC(C)C)OCOC(=O)OC(C)C)O[C@@H](n2ccc(N)nc2=O)[C@H](F)[C@@H]1O [Compound 106a]	–	10 to 100	–
CC[C@]1(COC(=O)C(C)C)O[C@@H](n2ccc(N)nc2=O)[C@H](F)[C@@H]1OC(=O)C(C)C [Compound 108a]	–	1 to 10	–
[N-]=[N+]=N[C@]1(CO)O[C@@H](n2ccc(N)nc2=O)[C@@H](O)[C@@H]1O [Compound 113a]	–	–	EC50 [4]: > 100 µM; EC50 [3]: > 100 µM
